The assay deals with Pim-1 (Homo sapiens, UniProt P11309). Description: X-ray crystal structure. The class given is biochemical.

The IC50 is the concentration that inhibits the measured activity by half. Low values mean higher potency, high ones lower potency. As for `O=C/C=C/c1ccccc1O` [2′-HCA], the IC50 is about 3 µM.
